The source of these data is patent US10646595B2, “Porphyrin compounds and their use as MRI contrast agents” (THE GOVERNING COUNCIL OF THE UNIVERSITY OF TORONTO, priority 2013, dated 2020).

Where two headings read alike, the source gives them in different places. Bounds are passed on as bounds.

A short description of series [1]: Urine sample analysis by UV-vis and Mn atomic absorption after injection in rats. The format is in vivo. The note with it: 0.05 mmol Mn/kg i.v. An excerpt:
(§1) MnPs MnTCP and (MnTPPS3)2 were administrated in rats and submitted for MRI studies on a 3T clinical scanner (Philips Achieva), with MnTPPS as a reference, and found to be efficient T1 CAs for in vivo applications, MnTCP and (MnTPPS3)2. A relatively low dose, 0.05 mmol Mn/kg (typical dose for clinical Gd-based CAs is ˜0.1 mmol Gd/kg) was chosen based on the in vitro relaxivity values described above.
(§2) The desired rapid clearance of MnTCP via renal filtration was further confirmed by urine sample analysis. The characteristic reddish color of MnPs was clearly visible by eye in the urine samples. The concentrations of MnPs can be accurately quantified by both UV-vis and Mn atomic absorption (Mn AA) spectroscopic analyses. Very high concentrations of MnP were detected in urine 60 minutes (11.7 μM) after injection. […] Moreover, a significant amount of MnTPPS (1.12 μM) could still be detected in urine 24 hours post-injection. […] The exclusion of the renal metabolic pathway for (MnTPPS3)2 was further confirmed by urine sample analysis.

The nature of series [2]: In vivo T1-weighted MRI in rats on 3T clinical scanner after intravenous injection. The note with it: 0.05 mmol Mn/kg i.v.
From the text: as §1, §2

Series [3] can be described thus: T1 and T2 relaxivities and phantom images at 3 T on clinical MRI scanner. It counts as physicochemical. The note with it: for r1 (T1 relaxivity): clinical MRI scanner, inversion-recovery spin-echo, 25° C. per FIG. 3. As to the method:
(A) A schematic diagram of how the solutions are placed. (B) The corresponding phantom images produced by the 3 T scanner.
Relaxivities of MnPs at 3 T were measured on a clinical MRI scanner (Philips Achieva). Each of the four CAs were prepared in a series of increasing concentrations, 0, 0.05, 0.1, 0.2 and 0.5 mM, and imaged using an inversion-recovery spin-echo pulse sequence with varied inversion times TI and a multi-echo spin-echo sequence with varied echo times TE. […] The r1 values in Table 1 were derived by calculating T1 relaxation times from the inversion-recovery images and then linearly fitting the T1 relaxation rates to obtain the relaxivity r1. T2 relaxivities of the MnPs were also calculated and are listed in […]

The nature of series [4]: NMRD profiles, field-dependent T1 relaxivity, field cycling NMR relaxometer 0 to 1 T. The settings on record: for T1 relaxivity per Mn(III) or Gd(III), NMRD comparison: fields above ~0.2 T, compared among MnTPPS, MnTCP, (MnTPPS3)2 and Gd-DTPA. It counts as physicochemical. As to the method: T1 relaxivity values were measured per Mn(III) or Gd(III) up to 1 T.
For series [5] the following is noted: 37° C., cited from earlier work.

For `O=C(O)c1c2nc(c(C(=O)O)c3ccc([n-]3)c(C(=O)O)c3nc(c(C(=O)O)c4ccc1[n-]4)C=C3)C=C2.[Cl-].[Mn+3]` [MnTCP, [5,10,15,20-tetrakis(carboxy)porphyrinato]manganese(III) Chloride], the concentration in urine in series [1] (60 minutes after injection) came to 11.7 µM. Moreover, in series [1] (about 24 h post injection), the “presence in urine sample” value is listed as “Absence”. In addition, the “time for relocation of majority of kidney enhancement into the bladder” value in series [2] (3 T MRI) is on record as “within an hour”. Further, the “time to accumulation in the kidney” value in series [2] (post injection, 3 T MRI) was not above 10 min. In addition, in series [3], the “relaxivity compared with Gd-DTPA” value is “significantly higher relaxivity than Gd-DTPA” and the “r1 (T1 relaxivity)” value is 7.90 mM⁻¹ s⁻¹. Further, the “T1 relaxivity, NMRD comparison” value in series [4] (at clinical field strengths) is recorded as “lower relaxivity than MnTPPS”. The “T1 relaxivity per Mn(III) or Gd(III), NMRD comparison” value in series [4] was “substantially higher than Gd-DTPA”.

With MnTPPS [reference compound], the values for the concentration in urine in series [1] (60 minutes after injection) and in series [1] (24 hours post-injection) were 4.41 µM and 1.12 µM, respectively. Besides, in series [2] (3 T MRI), the liver enhancement result is given as “clear liver enhancement”. Besides, the “persistence of kidney T1 enhancement signal” value in series [2] (3 T MRI) was “still visible in the image 1 day post-injection”. Moreover, the relaxivity plateau in series [5] (up to 1 T) was more than 10 mM⁻¹ s⁻¹. The “field of relaxivity peak” value in series [5] is 0.2 T. For the same molecule, in series [3], the “r1 (T1 relaxivity)” value is 8.83 mM⁻¹ s⁻¹.

With `O=S(=O)([O-])c1ccc(C2=C3C=CC4=[N+]3[Mn]35[n]6c2ccc6C(c2ccc(S(=O)(=O)[O-])cc2)=C2C=CC(=[N+]23)C(c2ccc(S(=O)(=O)[O-])cc2)=c2ccc([n]25)=C4c2ccc(-c3ccc(C4=C5C=CC6=[N+]5[Mn]57[n]8c4ccc8C(c4ccc(S(=O)(=O)[O-])cc4)=C4C=CC(=[N+]45)C(c4ccc(S(=O)(=O)[O-])cc4)=c4ccc([n]47)=C6c4ccc(S(=O)(=O)[O-])cc4)cc3)cc2)cc1` (centres unmarked) [(MnTPPS3)2], in series [1] (over the 72 hour post-injection period), the “MnP signal in urine by Mn-AA or UV-vis” value was “No MnP signal was found”. In addition, in series [2] (3 T MRI), the “enhancement in the blood vessels and in the heart” value is reported as “relatively long-lasting enhancement”; the liver enhancement entry is given as “significant liver enhancement”. For the same molecule, the bladder enhancement result in series [2] (over the three days of the experimental period) is recorded as “no bladder enhancement was detected”. Also, in series [3] (25° C., samples at the same concentration), the “signal intensity on T1 weighted phantom images” value is listed as “highest signal intensity”. Besides, in series [3], the “r1 (T1 relaxivity)” value is 14.1 mM⁻¹ s⁻¹. Besides, the “field of relaxivity peak” value in series [4] (NMRD profile) was approximately 1 T. For the same molecule, the “T1 relaxivity per Mn(III) or Gd(III), NMRD comparison” value in series [4] is listed as “highest relaxivity per Mn”.
